Data from ChEMBL document CHEMBL3885881, “DrugMatrix”.

Species: Rattus norvegicus
Experiment: DrugMatrix - Regimen: Daily Repeat
Format: toxicity, organism-based, Sprague-Dawley
Set-up: regimen Daily Repeat, gender Male, age 6-8 weeks
Settings: in vivo, po, route oral GAVAGE, vehicle .5 % CMC; for ABSOLUTE BASOPHIL / ABSOLUTE EOSINOPHIL / ABSOLUTE LYMPHOCYTE / ABSOLUTE MONOCYTE / ABSOLUTE SEGMENTED NEUTROPHIL / BASOPHIL / EOSINOPHIL / ERYTHROCYTE COUNT / HEMATOCRIT / HEMOGLOBIN / LEUKOCYTE COUNT / LYMPHOCYTE / MEAN CORPUSCULAR HEMOGLOBIN / MEAN CORPUSCULAR HEMOGLOBIN CONCENTRATION / MEAN CORPUSCULAR VOLUME / MONOCYTE / NEUTROPHIL / NUCLEATED RED BLOOD CELLS / PLATELET COUNT: tissue Blood; for ALANINE AMINOTRANSFERASE / ALBUMIN / ALKALINE PHOSPHATASE / ASPARTATE AMINOTRANSFERASE / BLOOD UREA NITROGEN / CARBON DIOXIDE / CHLORIDE / CHOLESTEROL / CREATINE PHOSPHOKINASE / CREATININE / GLUCOSE / LACTATE DEHYDROGENASE / LIPASE / PHOSPHORUS / POTASSIUM / SODIUM / TOTAL BILIRUBIN / TOTAL PROTEIN / URIC ACID: tissue Plasma
[1] = 0 mg/kg, 72 h, dose level Control, time 3 day
[2] = 0 mg/kg, 120 h, dose level Control, time 5 day
[3] = 50 mg/kg, 72 h, dose level Low, time 3 day

## CN(C)[C@@H]1C(O)=C(C(N)=O)C(=O)[C@@]2(O)C(O)=C3C(=O)c4c(O)ccc(Cl)c4[C@@](C)(O)[C@H]3C[C@@H]12 [CHLORTETRACYCLINE]
[1]
  ABSOLUTE BASOPHIL: 0 CELLS/uL
  ABSOLUTE EOSINOPHIL: 32.5 CELLS/uL
  ABSOLUTE LYMPHOCYTE: 13494.17 CELLS/uL
  ABSOLUTE MONOCYTE: 474 CELLS/uL
  ABSOLUTE SEGMENTED NEUTROPHIL: 1932.67 CELLS/uL
  BASOPHIL: 0%
  EOSINOPHIL: 0.17%
  ERYTHROCYTE COUNT: 5.45 x10E6/uL
  HEMATOCRIT: 34.32%
  HEMOGLOBIN: 13.82 G/DL
  LEUKOCYTE COUNT: 15.93 x10E3/uL
  LYMPHOCYTE: 84.83%
  MEAN CORPUSCULAR HEMOGLOBIN: 25.38 pg
  MEAN CORPUSCULAR HEMOGLOBIN CONCENTRATION: 40.27 G/DL
  MEAN CORPUSCULAR VOLUME: 63.05 fL
  MONOCYTE: 3%
  NEUTROPHIL: 12%
  NUCLEATED RED BLOOD CELLS: 0.67 /100WBC
  PLATELET COUNT: 1188.5 x10E3/uL
  ALANINE AMINOTRANSFERASE: 54.83 u/L
  ALBUMIN: 4.22 G/DL
  ALKALINE PHOSPHATASE: 427.67 u/L
  ASPARTATE AMINOTRANSFERASE: 86.5 u/L
  BLOOD UREA NITROGEN: 15.33 mg/dL
  CARBON DIOXIDE: 24.83 mmol/L
  CHLORIDE: 102.33 MEQ/L
  CHOLESTEROL: 71.67 mg/dL
  CREATINE PHOSPHOKINASE: 442.5 u/L
  CREATININE: 0.19 mg/dL
  GLUCOSE: 160.67 mg/dL
  LACTATE DEHYDROGENASE: 236.5 u/L
  LIPASE: 9 u/L
  PHOSPHORUS: 11.97 mg/dL
  POTASSIUM: 6.2 MEQ/L
  SODIUM: 142.85 MEQ/L
  TOTAL BILIRUBIN: 0.2 mg/dL
  TOTAL PROTEIN: 5.8 G/DL
  URIC ACID: 1.3 mg/dL
[2]
  ABSOLUTE BASOPHIL: 0 CELLS/uL
  ABSOLUTE EOSINOPHIL: 114.5 CELLS/uL
  ABSOLUTE LYMPHOCYTE: 14614 CELLS/uL
  ABSOLUTE MONOCYTE: 173 CELLS/uL
  ABSOLUTE SEGMENTED NEUTROPHIL: 1048.5 CELLS/uL
  BASOPHIL: 0%
  EOSINOPHIL: 0.67%
  ERYTHROCYTE COUNT: 5.66 x10E6/uL
  HEMATOCRIT: 35.52%
  HEMOGLOBIN: 14.27 G/DL
  LEUKOCYTE COUNT: 15.95 x10E3/uL
  LYMPHOCYTE: 91.33%
  MEAN CORPUSCULAR HEMOGLOBIN: 25.23 pg
  MEAN CORPUSCULAR HEMOGLOBIN CONCENTRATION: 40.2 G/DL
  MEAN CORPUSCULAR VOLUME: 62.7 fL
  MONOCYTE: 1.17%
  NEUTROPHIL: 6.83%
  NUCLEATED RED BLOOD CELLS: 0.33 /100WBC
  PLATELET COUNT: 1229 x10E3/uL
  ALANINE AMINOTRANSFERASE: 58.67 u/L
  ALBUMIN: 4.32 G/DL
  ALKALINE PHOSPHATASE: 382.5 u/L
  ASPARTATE AMINOTRANSFERASE: 81.67 u/L
  BLOOD UREA NITROGEN: 17.67 mg/dL
  CARBON DIOXIDE: 27.17 mmol/L
  CHLORIDE: 102.33 MEQ/L
  CHOLESTEROL: 63.67 mg/dL
  CREATINE PHOSPHOKINASE: 227.67 u/L
  CREATININE: 0.23 mg/dL
  GLUCOSE: 155.33 mg/dL
  LACTATE DEHYDROGENASE: 146.5 u/L
  LIPASE: 10.67 u/L
  PHOSPHORUS: 11.93 mg/dL
  POTASSIUM: 6.85 MEQ/L
  SODIUM: 143.95 MEQ/L
  TOTAL BILIRUBIN: 0.18 mg/dL
  TOTAL PROTEIN: 6.02 G/DL
  URIC ACID: 1.63 mg/dL
[3]
  ABSOLUTE BASOPHIL: 0 CELLS/uL
  ABSOLUTE EOSINOPHIL: 126.67 CELLS/uL
  ABSOLUTE LYMPHOCYTE: 10511.33 CELLS/uL
  ABSOLUTE MONOCYTE: 344.33 CELLS/uL
  ABSOLUTE SEGMENTED NEUTROPHIL: 817.67 CELLS/uL
  BASOPHIL: 0%
  EOSINOPHIL: 1%
  ERYTHROCYTE COUNT: 5.49 x10E6/uL
  HEMATOCRIT: 34.47%
  HEMOGLOBIN: 13.47 G/DL
  LEUKOCYTE COUNT: 11.8 x10E3/uL
  LYMPHOCYTE: 89%
  MEAN CORPUSCULAR HEMOGLOBIN: 24.57 pg
  MEAN CORPUSCULAR HEMOGLOBIN CONCENTRATION: 39.13 G/DL
  MEAN CORPUSCULAR VOLUME: 62.87 fL
  MONOCYTE: 3%
  NEUTROPHIL: 7%
  NUCLEATED RED BLOOD CELLS: 0 /100WBC
  PLATELET COUNT: 1083.33 x10E3/uL
  ALANINE AMINOTRANSFERASE: 50.33 u/L
  ALBUMIN: 4.07 G/DL
  ALKALINE PHOSPHATASE: 403.67 u/L
  ASPARTATE AMINOTRANSFERASE: 84.67 u/L
  BLOOD UREA NITROGEN: 16.67 mg/dL
  CARBON DIOXIDE: 26 mmol/L
  CHLORIDE: 103.67 MEQ/L
  CHOLESTEROL: 73.33 mg/dL
  CREATINE PHOSPHOKINASE: 273.67 u/L
  CREATININE: 0.15 mg/dL
  GLUCOSE: 157.67 mg/dL
  LACTATE DEHYDROGENASE: 157.33 u/L
  LIPASE: 9.33 u/L
  PHOSPHORUS: 12.13 mg/dL
  POTASSIUM: 6.6 MEQ/L
  SODIUM: 146.1 MEQ/L
  TOTAL BILIRUBIN: 0.2 mg/dL
  TOTAL PROTEIN: 5.67 G/DL
  URIC ACID: 1.77 mg/dL
